Source: article PMC10912603 (Food Chemistry: X, 2024)

What was measured:
anti-EUGs mAb [1] = test: broad-spectrum indirect competitive ELISA; assay type: binding, mice; conditions: for CR (cross-reactivity): CR=[(IC50 eugenol)/(IC50 analog)]×100%; for LOD (IC10) / linear range (IC20–IC80): in buffer solution
1B5 mAb = conditions: previously reported mAb; ref [2] Lei et al., 2023; cited from earlier work
[2] = ref Li et al., 2015; cited from earlier work
anti-EUGs mAb [3] = test: antibody affinity by saturation concentration method; assay type: binding, mice; conditions: mAb to eugenol
[4] = National Toxicology Program; ref Li et al., 2015; cited from earlier work

| Compound | CR (cross-reactivity) (anti-EUGs mAb [1]) [%] | LOD (IC10) (anti-EUGs mAb [1]) [ng/mL] | linear range (IC20–IC80) (anti-EUGs mAb [1]) [ng/mL] | further results |
| --- | --- | --- | --- | --- |
| CCc1ccc(O)c(OC)c1 [4-Ethyl-2-methoxyphenol] | 8.7 | – | – | – |
| CCOC(=O)c1ccc(N)cc1 [Benzocaine] | <0.4 | – | – | – |
| Oc1ccccc1O [Catechol] | <0.4 | – | – | – |
| C=CCc1ccc(O)c(OC)c1 [Eugenol] | 100 | 3.16 | 7.92 to 184.05 | IC50 of mAb 1B5 (1B5 mAb): 9.23 ng/mL; IARC carcinogen category [2]: Group 3 carcinogen; dissociation constant Ka (anti-EUGs mAb [3]; Ka is the inverse of Kd): 1.3e+09 L/mol; Kd (anti-EUGs mAb [3]; read-out: affinity constant Kd): 0.77 nM |
| COc1ccccc1O [Guaiacol] | <0.4 | – | – | – |
| C=CCc1ccc(OC)c(OC)c1 [Methyl eugenol] | 4773.8 | 0.06 | 0.15 to 4.30 | liver cancer risk [4]: potential to elevate the risk of liver cancer |
| C/C=C/c1ccc(OC)c(OC)c1 [Methyl isoeugenol] | 8679.5 | 0.02 | 0.06 to 3.04 | – |
| CC(C)c1cccc(C(C)C)c1O [Propofol] | <0.4 | – | – | – |
| CCCCNc1ccc(C(=O)OCCN(C)C)cc1 [Tetracaine] | <0.4 | – | – | – |
| CCOC(=O)c1cccc(N)c1.CS(=O)(=O)O [Tricaine methanesulfonate] | <0.4 | – | – | – |
| COc1cc(C=O)ccc1O [Vanillin] | <0.4 | – | – | – |
| COc1ccc(C=O)cc1OC [Veratraldehyde] | <0.4 | – | – | – |
| Isoeugenol | 25460.0 | 0.00935 | 0.026 to 0.865 | – |
